# Test results from patent US7767398B2, “Means and methods for diagnosing and treating affective disorders” (Affectis Pharmaceuticals AG, priority 2003, dated 2010).
# Key:
# human P2X7R = biological target: T1, human P2X7R (Homo sapiens, UniProt Q99572); assay: Calcium entry in HT-22 cells overexpressing human P2X7R (Fluo-4 AM); type: cell-based; conditions: 20 μM BzATP or 50 μM tenidap
# T1 construct: expressed in transfected cells
# T1 sequence (Q99572 1-595): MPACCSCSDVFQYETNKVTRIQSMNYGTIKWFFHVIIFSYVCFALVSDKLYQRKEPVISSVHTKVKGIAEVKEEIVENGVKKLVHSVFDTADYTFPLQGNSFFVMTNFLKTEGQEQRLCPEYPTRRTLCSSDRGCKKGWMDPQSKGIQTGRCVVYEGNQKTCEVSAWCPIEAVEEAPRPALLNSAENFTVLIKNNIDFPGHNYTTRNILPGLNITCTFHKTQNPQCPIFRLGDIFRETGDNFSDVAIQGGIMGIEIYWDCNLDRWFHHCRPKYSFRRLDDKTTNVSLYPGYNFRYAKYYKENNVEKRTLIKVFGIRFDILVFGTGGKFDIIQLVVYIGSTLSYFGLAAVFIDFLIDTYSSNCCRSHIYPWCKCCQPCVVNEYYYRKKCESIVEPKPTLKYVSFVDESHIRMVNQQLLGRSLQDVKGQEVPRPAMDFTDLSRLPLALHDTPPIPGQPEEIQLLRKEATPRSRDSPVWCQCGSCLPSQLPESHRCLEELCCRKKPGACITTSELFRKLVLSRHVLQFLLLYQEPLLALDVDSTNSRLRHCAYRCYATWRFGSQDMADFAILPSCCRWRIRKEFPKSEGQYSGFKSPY
# From the text: Yet another method for identifying P2X7R agonists was devised by generating a immortalised mouse cell line that overexpresses the human P2X7R gene under the control of the human cytomegalovirus (CMV) early promoter/enhancer region. The human P2X7R cDNA was inserted into the pcDNA3.1 vector (Invitrogen) and transfected into the mouse hippocampal cell line HT-22 using Lipofectamine (Invitrogen) according to the manufacturer's specifications. One day after transfection, culture medium containing 500 μg/ml G418 was added to the cells. Resistant clones were separately isolated and cultured 14 days after applying the selection medium.
# The agonistic activity of a compound was evaluated by measuring calcium entry in the cells that overexpress the human P2X7R. Cells were cultured in 96 well plates and incubated at 37° C. with 5% C02 DMEM with 10% foetal calf serum (Gibco) until they reached confluence. Cells were then loaded for one hour with 10 μM of Fluo4 AM (Molecular Probes). Fluo-4 AM is a fluorescent dye that binds to intracellular calcium. […] Agonist activity was detected by measuring an increase in calcium influx which results in increased binding to Fluo4 AM and increased fluorescence. Changes in fluorescence signal are measured using a Fluostar Optima plate reader (BMG biotech). […] Thus, both compound stimulated the activity of P2X7R which results in an influx of ions into the cells.
# P2X7R = biological target: T2, P2X7R (Mus musculus, UniProt Q9Z1M0); assay: Entry of ethidium bromide into HT-22 cells; type: cell-based; conditions: HT-22 cells, 60 minutes, 10^−4M ethidium bromide; 1 μM to 1 mM tested
# T2 construct: an immortalised mouse hippocampal cell line expressing the endogenous P2X7 gene; endogenous in cells; host or cells: HT-22 mouse hippocampal cell line
# T2 sequence (Q9Z1M0 1-595): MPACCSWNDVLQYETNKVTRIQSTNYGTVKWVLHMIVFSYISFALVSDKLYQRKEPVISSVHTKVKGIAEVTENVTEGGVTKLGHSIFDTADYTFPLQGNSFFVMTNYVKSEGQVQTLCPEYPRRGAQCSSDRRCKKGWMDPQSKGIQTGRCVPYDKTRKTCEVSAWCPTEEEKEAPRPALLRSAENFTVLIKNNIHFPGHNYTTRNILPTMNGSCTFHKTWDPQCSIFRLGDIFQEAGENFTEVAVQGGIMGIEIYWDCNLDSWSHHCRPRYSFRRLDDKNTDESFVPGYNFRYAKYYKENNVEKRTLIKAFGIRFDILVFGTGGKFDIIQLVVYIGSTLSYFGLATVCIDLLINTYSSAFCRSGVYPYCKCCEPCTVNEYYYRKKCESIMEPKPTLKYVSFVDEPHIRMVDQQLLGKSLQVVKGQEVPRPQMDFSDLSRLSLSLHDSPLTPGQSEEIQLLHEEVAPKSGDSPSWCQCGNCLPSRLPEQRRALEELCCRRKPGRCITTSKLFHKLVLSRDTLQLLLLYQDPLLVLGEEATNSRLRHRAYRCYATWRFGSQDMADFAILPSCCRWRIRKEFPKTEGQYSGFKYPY
# From the text: Yet another method of measuring P2X7R activity involves the entry of ethidium bromide into P2X7R expressing cells. Activation of P2X7R by an agonist allows the entry of ethidium bromide which binds nuclear DNA and emits a fluorescence signal. Alternatively, the propidium dye YOPRO-1 can be substituted for ethidium bromide. An increase in fluorescence can be used as a measure of P2X7 receptor activation. Therefore, the assay can be used to test and quantify the effect of an agent or compound with agonist properties on P2X7R. In the present example, 10^3 HT-22 cells were seeded per well in a 96-well flat bottom microtitre plates and incubated at 37° C./5% CO2 in DMEM medium containing 10% FCS until the cells attached to the culture surface. […] The number of fluorescent cells which have integrated the ethidium bromide to the DNA can then be counted using a fluorescent microscope (Zeiss, Germany). […] Alternatively, ethidium bromide fluorescence can be measured using a Perkin-Elmer fluorescent plate reader (excitation 520 nm, emission 595 nm, slit widths: Ex 15 nm, Em 20 nm). From the readings obtained, a pIC50 figure can be calculated for each candidate agent or compound. […] The specificity of an agonist for P2X7R can be evaluated by pre-incubation of the cells for 60 minutes with 100 μM o-ATP before adding the agonist and ethidium bromide dye.
# mice = assay: Open field test (locomotor activity); conditions: 50 μM BzATP, 24 hours after injection, vs vehicle
# Procedure: Locomotor activity was monitored for a period of 30 minutes using a video camera. Overall distance traveled by the animals during the testing period was then analysed by means of VideoMot2 computer software (TSE GmbH, Bad Homburg).
substance,measurement,setting,value
2′-3′-O-(4-Benzoylbenzoyl)adenosine 5′-triphosphate [BzATP],calcium influx (Fluo-4 AM fluorescence intensity),human P2X7R,rapid increase in fluorescence intensity
same,BzATP concentrations that increased the number of fluorescent nuclei,P2X7R,above 100 μM
same,"locomotor activity (overall distance traveled, 30 minutes)",mice,No difference in locomotor activity
